Reference: paper doi:10.1101/2020.07.01.182642v1 (biorxiv, 2020)

Assays:
Conditions in all cases: binder
CLK3 (R134-T484) = CLK3 (R134-T484) (Homo sapiens, UniProt P49761)
CLK1 (H148-I484) = CLK1 (H148-I484) (Homo sapiens, UniProt P49759, V324A)
STK33 = STK33 (Homo sapiens, UniProt Q9BYT3)
AAK1 = AAK1 (Homo sapiens, UniProt Q2M2I8)
MAPK8 = MAPK8 (Homo sapiens, UniProt P45983)
RPS6KA6 = RPS6KA6 (Homo sapiens, UniProt Q9UK32)
STK26 = STK26 (Homo sapiens, UniProt Q9P289)
PLK4 = biological target: T1, PLK4 (Homo sapiens, UniProt O00444)
T1 sequence (O00444 1-970): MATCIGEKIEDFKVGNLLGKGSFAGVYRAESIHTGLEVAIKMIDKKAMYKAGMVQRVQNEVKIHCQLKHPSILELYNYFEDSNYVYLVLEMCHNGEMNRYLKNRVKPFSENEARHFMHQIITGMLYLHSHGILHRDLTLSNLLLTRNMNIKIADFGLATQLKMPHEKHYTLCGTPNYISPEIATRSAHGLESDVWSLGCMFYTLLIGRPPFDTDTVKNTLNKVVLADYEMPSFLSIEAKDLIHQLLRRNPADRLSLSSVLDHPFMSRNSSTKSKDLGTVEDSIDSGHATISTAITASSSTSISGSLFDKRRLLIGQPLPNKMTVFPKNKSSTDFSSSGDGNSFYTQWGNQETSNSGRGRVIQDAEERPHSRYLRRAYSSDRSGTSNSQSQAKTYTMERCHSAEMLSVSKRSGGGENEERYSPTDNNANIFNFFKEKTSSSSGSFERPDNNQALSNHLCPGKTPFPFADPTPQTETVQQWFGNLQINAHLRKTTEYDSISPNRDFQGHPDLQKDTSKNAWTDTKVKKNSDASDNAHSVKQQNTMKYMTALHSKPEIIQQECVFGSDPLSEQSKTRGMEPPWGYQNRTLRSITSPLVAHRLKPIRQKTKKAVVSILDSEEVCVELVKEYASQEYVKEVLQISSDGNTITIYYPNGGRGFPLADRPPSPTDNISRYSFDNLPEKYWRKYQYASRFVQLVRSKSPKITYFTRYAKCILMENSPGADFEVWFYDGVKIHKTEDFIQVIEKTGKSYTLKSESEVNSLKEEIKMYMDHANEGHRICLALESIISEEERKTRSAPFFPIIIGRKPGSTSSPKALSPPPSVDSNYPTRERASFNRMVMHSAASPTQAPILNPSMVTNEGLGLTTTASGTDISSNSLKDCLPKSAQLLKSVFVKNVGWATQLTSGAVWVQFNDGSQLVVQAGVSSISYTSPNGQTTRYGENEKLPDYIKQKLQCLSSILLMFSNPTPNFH

CDK8 = CDK8 (Homo sapiens, UniProt P49336)
Sequence of CDK8 (P49336 whole entry): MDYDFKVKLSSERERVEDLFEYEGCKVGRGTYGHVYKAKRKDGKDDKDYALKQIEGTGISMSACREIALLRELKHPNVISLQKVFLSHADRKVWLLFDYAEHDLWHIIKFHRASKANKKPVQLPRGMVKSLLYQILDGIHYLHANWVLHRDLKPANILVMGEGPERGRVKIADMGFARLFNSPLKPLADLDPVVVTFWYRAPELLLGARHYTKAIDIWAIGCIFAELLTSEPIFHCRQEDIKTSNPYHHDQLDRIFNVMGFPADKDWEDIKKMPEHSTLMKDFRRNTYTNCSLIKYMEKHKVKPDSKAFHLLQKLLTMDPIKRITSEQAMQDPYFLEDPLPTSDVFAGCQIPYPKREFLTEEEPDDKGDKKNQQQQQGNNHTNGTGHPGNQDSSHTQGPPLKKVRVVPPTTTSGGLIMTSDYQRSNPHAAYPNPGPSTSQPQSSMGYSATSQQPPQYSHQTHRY

STK39 = STK39 (Homo sapiens, UniProt Q9UEW8)
TRIB1 = TRIB1 (Homo sapiens, UniProt Q96RU8)
PRKAA1 = PRKAA1 (Homo sapiens, UniProt Q13131)
Sequence of PRKAA1 (Q13131 whole entry): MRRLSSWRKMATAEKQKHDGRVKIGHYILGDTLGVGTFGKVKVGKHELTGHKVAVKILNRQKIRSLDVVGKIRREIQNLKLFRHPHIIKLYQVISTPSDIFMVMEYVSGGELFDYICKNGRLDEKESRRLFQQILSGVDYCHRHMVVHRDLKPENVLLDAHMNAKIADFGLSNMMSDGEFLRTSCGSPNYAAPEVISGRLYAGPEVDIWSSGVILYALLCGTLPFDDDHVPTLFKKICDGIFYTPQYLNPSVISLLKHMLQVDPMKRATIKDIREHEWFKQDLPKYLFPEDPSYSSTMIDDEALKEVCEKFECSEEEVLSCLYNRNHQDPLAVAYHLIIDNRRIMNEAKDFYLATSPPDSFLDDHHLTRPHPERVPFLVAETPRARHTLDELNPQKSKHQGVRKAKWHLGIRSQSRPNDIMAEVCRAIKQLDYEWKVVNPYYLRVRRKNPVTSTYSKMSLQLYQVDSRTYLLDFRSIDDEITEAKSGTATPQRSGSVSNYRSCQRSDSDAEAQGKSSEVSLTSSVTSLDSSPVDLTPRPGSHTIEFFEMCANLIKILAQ

SIK2 = SIK2 (Homo sapiens, UniProt Q9H0K1)
MAP2K1 = MAP2K1 (Homo sapiens, UniProt Q02750)
ZAK = ZAK (Homo sapiens, UniProt Q9NYL2)
Sequence of ZAK (Q9NYL2 whole entry): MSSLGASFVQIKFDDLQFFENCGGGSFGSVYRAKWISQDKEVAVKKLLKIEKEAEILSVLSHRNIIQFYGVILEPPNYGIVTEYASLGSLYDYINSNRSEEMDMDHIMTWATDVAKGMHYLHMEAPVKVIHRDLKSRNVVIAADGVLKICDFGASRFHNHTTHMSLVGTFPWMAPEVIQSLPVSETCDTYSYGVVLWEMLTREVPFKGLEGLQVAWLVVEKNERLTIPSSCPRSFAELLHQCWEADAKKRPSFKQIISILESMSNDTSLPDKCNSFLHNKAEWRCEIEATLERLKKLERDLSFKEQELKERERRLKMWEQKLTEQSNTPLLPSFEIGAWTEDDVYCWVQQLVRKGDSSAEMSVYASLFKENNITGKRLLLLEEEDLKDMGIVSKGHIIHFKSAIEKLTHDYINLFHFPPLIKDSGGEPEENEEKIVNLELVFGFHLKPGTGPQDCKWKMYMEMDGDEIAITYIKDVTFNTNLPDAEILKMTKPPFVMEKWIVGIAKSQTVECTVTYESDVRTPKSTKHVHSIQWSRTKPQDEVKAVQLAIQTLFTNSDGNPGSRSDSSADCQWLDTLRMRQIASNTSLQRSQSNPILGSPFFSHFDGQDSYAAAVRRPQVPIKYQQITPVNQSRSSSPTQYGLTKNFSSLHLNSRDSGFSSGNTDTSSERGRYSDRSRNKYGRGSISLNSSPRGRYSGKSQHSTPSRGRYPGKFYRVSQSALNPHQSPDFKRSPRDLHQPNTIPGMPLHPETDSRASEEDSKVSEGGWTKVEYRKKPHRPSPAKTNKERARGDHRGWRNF

STK16 = STK16 (Homo sapiens, UniProt O75716)
Sequence of STK16 (O75716 whole entry): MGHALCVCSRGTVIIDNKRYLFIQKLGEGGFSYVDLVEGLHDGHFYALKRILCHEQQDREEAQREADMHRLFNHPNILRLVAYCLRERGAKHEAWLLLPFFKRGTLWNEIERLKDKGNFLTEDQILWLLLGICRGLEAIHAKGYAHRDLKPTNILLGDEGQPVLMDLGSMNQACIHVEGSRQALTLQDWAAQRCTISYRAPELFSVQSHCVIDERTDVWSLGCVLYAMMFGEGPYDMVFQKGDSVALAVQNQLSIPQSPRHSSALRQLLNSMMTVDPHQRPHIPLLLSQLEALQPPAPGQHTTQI

CDK2 = CDK2 (Homo sapiens, UniProt P24941)
WNK3 = WNK3 (Homo sapiens, UniProt Q9BYP7)
MAPK6 = MAPK6 (Homo sapiens, UniProt Q16659)
JAK1 = JAK1 (Homo sapiens, UniProt P23458)
DMPK = DMPK (Homo sapiens, UniProt Q09013)
STK4 = STK4 (Homo sapiens, UniProt Q13043)

Sequence of STK33 (Q9BYT3 whole entry): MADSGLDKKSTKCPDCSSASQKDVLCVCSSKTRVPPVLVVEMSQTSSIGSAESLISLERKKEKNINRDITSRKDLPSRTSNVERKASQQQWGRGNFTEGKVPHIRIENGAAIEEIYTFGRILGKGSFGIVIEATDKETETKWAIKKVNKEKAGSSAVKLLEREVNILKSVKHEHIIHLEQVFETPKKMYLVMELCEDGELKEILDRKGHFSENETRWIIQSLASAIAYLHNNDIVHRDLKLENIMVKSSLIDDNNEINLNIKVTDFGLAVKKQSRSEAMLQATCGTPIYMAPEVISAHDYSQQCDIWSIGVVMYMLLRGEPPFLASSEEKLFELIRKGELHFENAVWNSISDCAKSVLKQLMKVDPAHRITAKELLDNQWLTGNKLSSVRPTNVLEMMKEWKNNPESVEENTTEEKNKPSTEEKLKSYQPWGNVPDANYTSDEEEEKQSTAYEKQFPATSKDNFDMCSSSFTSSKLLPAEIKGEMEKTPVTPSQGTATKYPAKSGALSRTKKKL
Sequence of STK26 (Q9P289 whole entry): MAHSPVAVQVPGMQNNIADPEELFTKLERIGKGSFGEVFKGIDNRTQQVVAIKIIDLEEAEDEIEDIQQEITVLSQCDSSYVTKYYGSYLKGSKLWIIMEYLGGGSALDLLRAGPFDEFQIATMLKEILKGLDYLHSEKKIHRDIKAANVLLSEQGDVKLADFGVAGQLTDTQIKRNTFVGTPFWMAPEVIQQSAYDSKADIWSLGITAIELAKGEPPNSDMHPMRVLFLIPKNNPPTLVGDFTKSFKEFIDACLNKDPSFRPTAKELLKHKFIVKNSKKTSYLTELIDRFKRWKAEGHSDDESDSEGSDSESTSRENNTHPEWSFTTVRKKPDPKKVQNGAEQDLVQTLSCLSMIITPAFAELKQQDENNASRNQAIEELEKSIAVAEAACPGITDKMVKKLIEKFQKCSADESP
Sequence of RPS6KA6 (Q9UK32 whole entry): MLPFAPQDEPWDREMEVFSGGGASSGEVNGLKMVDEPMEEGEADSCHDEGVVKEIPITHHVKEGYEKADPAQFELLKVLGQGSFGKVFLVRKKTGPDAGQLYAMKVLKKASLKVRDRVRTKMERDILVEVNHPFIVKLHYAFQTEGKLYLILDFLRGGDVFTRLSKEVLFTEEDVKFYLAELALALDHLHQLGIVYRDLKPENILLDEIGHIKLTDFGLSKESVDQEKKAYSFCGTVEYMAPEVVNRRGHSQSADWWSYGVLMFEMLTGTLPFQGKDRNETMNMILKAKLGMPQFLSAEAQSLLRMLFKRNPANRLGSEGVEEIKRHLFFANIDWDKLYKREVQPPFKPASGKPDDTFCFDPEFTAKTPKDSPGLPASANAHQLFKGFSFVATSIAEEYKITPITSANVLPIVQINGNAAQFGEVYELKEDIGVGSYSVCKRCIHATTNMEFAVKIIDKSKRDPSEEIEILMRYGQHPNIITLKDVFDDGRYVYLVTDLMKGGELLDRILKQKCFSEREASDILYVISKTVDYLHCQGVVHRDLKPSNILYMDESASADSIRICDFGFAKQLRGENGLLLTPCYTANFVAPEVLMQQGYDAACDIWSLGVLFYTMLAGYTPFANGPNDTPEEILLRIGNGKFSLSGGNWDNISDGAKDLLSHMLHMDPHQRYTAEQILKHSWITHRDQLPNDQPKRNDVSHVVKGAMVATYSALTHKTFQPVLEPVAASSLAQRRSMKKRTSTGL
Sequence of AAK1 (Q2M2I8 whole entry): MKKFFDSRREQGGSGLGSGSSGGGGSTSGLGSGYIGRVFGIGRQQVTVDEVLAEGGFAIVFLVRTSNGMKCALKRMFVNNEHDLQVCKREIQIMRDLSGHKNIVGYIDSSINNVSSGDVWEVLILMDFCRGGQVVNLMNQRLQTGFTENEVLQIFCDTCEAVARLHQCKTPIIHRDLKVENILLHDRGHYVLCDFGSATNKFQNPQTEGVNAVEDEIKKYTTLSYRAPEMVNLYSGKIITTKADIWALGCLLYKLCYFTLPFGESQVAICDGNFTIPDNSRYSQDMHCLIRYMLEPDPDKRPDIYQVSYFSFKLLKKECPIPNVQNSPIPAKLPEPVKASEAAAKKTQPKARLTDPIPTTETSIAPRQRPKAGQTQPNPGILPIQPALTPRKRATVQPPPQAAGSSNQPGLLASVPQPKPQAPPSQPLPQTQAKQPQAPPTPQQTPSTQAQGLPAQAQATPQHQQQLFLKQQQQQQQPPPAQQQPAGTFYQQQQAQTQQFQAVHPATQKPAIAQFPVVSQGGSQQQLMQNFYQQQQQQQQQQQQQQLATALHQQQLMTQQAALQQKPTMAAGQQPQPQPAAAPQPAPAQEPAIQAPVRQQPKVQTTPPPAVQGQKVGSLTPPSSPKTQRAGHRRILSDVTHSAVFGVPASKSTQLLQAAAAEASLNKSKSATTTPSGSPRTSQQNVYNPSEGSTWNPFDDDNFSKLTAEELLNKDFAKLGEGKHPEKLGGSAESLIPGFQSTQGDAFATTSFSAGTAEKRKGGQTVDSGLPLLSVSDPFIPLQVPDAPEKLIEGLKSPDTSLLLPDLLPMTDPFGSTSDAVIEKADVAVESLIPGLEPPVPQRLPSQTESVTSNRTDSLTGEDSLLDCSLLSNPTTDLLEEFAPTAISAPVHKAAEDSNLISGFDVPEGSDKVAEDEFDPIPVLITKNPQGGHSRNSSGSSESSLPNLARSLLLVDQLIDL

SMILES: Nc1nccc(-c2ccc3noc(-c4ccc(Cl)cc4)c3c2)n1 [compound 4, K00972]
- ΔTm wild type CLK3 (CLK3 (R134-T484)): 0.1 °C
- ΔTm V324A CLK1 (CLK1 (H148-I484)): 2.4 °C
- ΔTm 4 (STK33): 2.4 °C
- ΔTm inhibitor 4 (AAK1): 3.4 °C
- ΔTm inhibitor 4 (MAPK8): 1.0 °C
- ΔTm inhibitor 4 (RPS6KA6): 2.1 °C
- ΔTm inhibitor 4 (STK26): 0.1 °C
- ΔTm inhibitor 4 (PLK4): 0.4 °C
- ΔTm inhibitor 4 (CDK8): 1.9 °C
- ΔTm inhibitor 4 (STK39): 0.0 °C
- ΔTm inhibitor 4 (TRIB1): 0.1 °C
- ΔTm inhibitor 4 (PRKAA1): 0.5 °C
- ΔTm inhibitor 4 (SIK2): 0.4 °C
- ΔTm inhibitor 4 (MAP2K1): 0.2 °C
- ΔTm inhibitor 4 (ZAK): 0.3 °C
- ΔTm inhibitor 4 (STK16): 3.5 °C
- ΔTm inhibitor 4 (CDK2): 0.3 °C

SMILES: CCN1/C(=C/C(C)=O)Sc2ccc(OC)cc21 [compound 2, TG003]
- ΔTm 2 (STK33): 0.6 °C
- ΔTm inhibitor 2 (AAK1): 1.5 °C
- ΔTm inhibitor 2 (MAPK8): 0.7 °C
- ΔTm inhibitor 2 (RPS6KA6): 0.4 °C
- ΔTm inhibitor 2 (WNK3): -0.3 °C
- ΔTm inhibitor 2 (STK26): -0.3 °C
- ΔTm inhibitor 2 (PLK4): 0.2 °C
- ΔTm inhibitor 2 (CDK8): 0.1 °C
- ΔTm inhibitor 2 (MAPK6): 0.0 °C
- ΔTm inhibitor 2 (STK39): 0.5 °C
- ΔTm inhibitor 2 (JAK1): 0.1 °C
- ΔTm inhibitor 2 (TRIB1): 0.2 °C
- ΔTm inhibitor 2 (PRKAA1): -0.3 °C
- ΔTm inhibitor 2 (SIK2): -0.2 °C
- ΔTm inhibitor 2 (MAP2K1): -0.1 °C
- ΔTm inhibitor 2 (ZAK): -0.3 °C
- ΔTm inhibitor 2 (DMPK): 1.0 °C
- ΔTm inhibitor 2 (STK4): 0.7 °C
- ΔTm inhibitor 2 (STK16): 0.2 °C
- ΔTm inhibitor 2 (CDK2): -0.1 °C

SMILES: CC(=O)c1cccc(-c2cnc3ccc(NCC4CC4)nn23)c1 [compound 1, K00135]
- ΔTm wild type CLK3 (CLK3 (R134-T484)): 1.4 °C
- ΔTm V324A CLK1 (CLK1 (H148-I484)): 4.9 °C
- ΔTm 1 (STK33): 3.1 °C
- ΔTm inhibitor 1 (AAK1): 6.9 °C
- ΔTm inhibitor 1 (RPS6KA6): 4.2 °C
- ΔTm inhibitor 1 (WNK3): 0.0 °C
- ΔTm inhibitor 1 (STK26): 0.3 °C
- ΔTm inhibitor 1 (PLK4): 2.6 °C
- ΔTm inhibitor 1 (CDK8): 2.7 °C
- ΔTm inhibitor 1 (MAPK6): 0.4 °C
- ΔTm inhibitor 1 (STK39): 0.8 °C
- ΔTm inhibitor 1 (JAK1): 6.4 °C
- ΔTm inhibitor 1 (PRKAA1): 1.3 °C
- ΔTm inhibitor 1 (ZAK): 1.4 °C
- ΔTm inhibitor 1 (DMPK): 1.0 °C
- ΔTm inhibitor 1 (STK4): 2.6 °C
- ΔTm inhibitor 1 (STK16): 2.3 °C
- ΔTm inhibitor 1 (CDK2): 1.5 °C
